Source: US9279004B2, “Synthetic PnTx(19) peptide, pharmaceutical compositions and use” (priority 2012, dated 2016)

Key:
[1] = tested on: strips of cavernous body isolated from mice; assay: Relaxation of cavernous-body strips pre-contracted with phenylephrine; conditions: acetylcholine 10^-4 M (control); pre-contracted by phenylephrine 10^-5 M
Description: FIG. 5—Effects of the toxin PnTx2-6 and of the peptide PnTx(19) (1×10^-6M) on the relaxation of strips of cavernous goodies of mice. The strips were pre-contracted with phenylefrine (10^-5 M) and relaxed with acetylcholine (10^-4M)-control, PnTx2-6 (5×10^-8M) and PnTx(19) (x10-6 M) (n=3).
Mice were sacrificed by decapitation, their penis were removed surgically and placed on a Petri dish containing Krebs Ringer bicarbonate—(NaCl, 118.1; KCl, 4.7; KH2PO4, 1.0; MgSo4, 1.0: NaHCO3, 25.0; CaCl2, 2.55; and Glucose, 11.1 mM), bubbled with a mixture of 95% O2 and 5% CO2. The gland, the spongy body and the urethra were removed and the cavernous bodies were desiccated with removal of the tunica albuginea and separated by cutting the fibrous septum between them. The strips of cavernous bodies measuring about 1×1×7 mm were mounted separately in a chamber, one end thereof being secured to an electrode and the other linked to a transducer. […]
The tissue was stretched by a passive force of 2.0 mN and stabilized for 60 minutes, the solution being replaced every 15 minutes. The changes in isometric force were recorded by using an isometric force transducer (World Precision Instruments, Inc., Sarasota, Fla., USA), connected to an amplifier (TBM-4 model; World Precision Instruments, Inc., USA), using software WinDaq Data Acquisition (Dada® Instruments, USA). […]

isolated perfused heart = assay: Isolated perfused heart: ventricular pressure, heart rate and ±dP/dt; set-up: species or system rats; conditions: peptide 37.8 nmol/L-37.8 μmol/L
Protocol: FIG. 7—Response dose curve of the peptide PnTx-19 and of the Toxin PnTx2-6 in the right (A) and (B) ventricular pressure, derived±dP/dt (C and D) and cardiac rate (E) of rats.
The rats were kept under a controlled cycle of 12 h light/darkness at a stable temperature with free access to water and food. They were decapitated 10 to 15 minutes after intraperitoneal injection of Heparin (200 IU). The thorax was opened, the heart was carefully desiccated and perfused through an aortic tip with Krebs-Ringer solution (KRS) containing (by mmol/L) NaCl (118.4), KCl (4.7), KH2PO4 (1.2), MgSO4.7H2O (1.2), CaCl2.2H2O (1.25), glucose (11.7) and NaHCO3 (26.5). The perfusion flow was kept constant (10 mL/min) at 37° C. and under constant oxygenation (5% CO2 and 95% O2). A balloon connected to a pressure transducer was inserted into the right ventricle, and one monitored the ventricular pressure, heart rate and derivative±dP/dt (FIG. 7). The balloon volume was adjusted to a final diastolic pressure of about 10 mm Hg. After a period for reaching the balance (30 to 40 minutes), 100 μmol/L carrier were injected (control), toxin at concentrations of 37.8 nmol/L-3.78 μmol/L or a peptide at concentrations of 37.8 nmol/L-37.8 μmol/L in perfusion buffer.
The results are the average±SEM. […]

[2] = tested on: cerebrocortical synaptosomes of rats; assay: Release of L-glutamate from cerebrocortical synaptosomes; type: cell-based, rat; conditions: 3×10^-5 M, compared with control (untreated synaptosomes), only active concentration of 10-6 to 3×10^-5 M
Protocol: FIG. 4—Effect of different concentrations of the PnTx(19) in releasing L-glutamate—ELISA Plate containing 300 μl/well of the synaptosome mixture (10% final volume) and NADP+(final concentration of 1 mM) in KRH with calcium (2 mM), kept at 37° C. under constant stirring was monitored. One carried out the reading of the fluorescence on the spectrofluorimeter for 2460 seconds. The enzyme GDH (35 units for the final volume of 300 μl) was added to the wells at 60 seconds; at 660 seconds, in different wells, one added different concentrations of PnTx(19) (“10^-5M, 3×10^-5 M, 10^-6 M and 3×10^-6 M”) and the KCI (33 mM). As negative controls, one used wells containing untreated synaptosomes […]. […]
The release of L-glutamate was analyzed according to the proposal of Nicholls et al. 1987 (NICHOLLS, D. et al. J. Neurochem. 49, 5057, 1987). In order to evaluate whether the peptide was capable of inducing release of L-glutamate in cerebrocortical synoptosomes of rats, just as the native toxin, one analyzed the effect thereof at the following concentrations: 10^-5M, 3×10^-5M, 10^-6M, and 2×10^-6 M, […].

[3] = Water solubility of the peptide; type: physicochemical; conditions: acetylated and amidated peptide
Description: With a view to increasing the solubility of the peptide, in the present technology one has synthetized the PnTx(19) with modifications in the N-terminal portion (acetylation) and C-terminal portion (amidation).

Swiss mice = assay: Immunogenicity after subcutaneous immunization (indirect ELISA antibody titer); type: in vivo; conditions: 10 μg subcutaneous, during the assays
Protocol: FIG. 8—Analysis of the antibody titer. A) Control: adjuvant (aluminum hydroxide). B) antibody titer after administration of the peptide PnTx-19 (10 μG) in different days.
Swiss, male, 20-23 gram mice were divided into 2 groups (Control—Adjuvant: aluminum hydroxide—FIG. 8 A and PnTx-19-10 μG—FIG. 8B), each group containing 4 animals. The mice were immunized by subcutaneous route. 21, 35 and 49 days from the first inoculation, the mice received a reinforcement of the above-mentioned preparations. To verify the presence of antibodies against the PnTx-19, the serum collected from the mouse tails was evaluated 15, 30, 40 and 60 days after the first inoculation through the indirect immunoenzymatic assay (ELISA), as described for other preparations (DEL PINO, F. A. B., BRANDELLI, A., GONZALES, J. C., HENRIQUES, J. A. P., DEWES, H., Effect of antibodies against β-N-acetylglucosaminidase on reproductive efficiency of the bovine tick Boophilus microplus. Vet. Parasitol. 79, 247-255, 1998).

[4] = tested on: channels for sodium Nav1.5, present in cardiomyocytes; assay: Patch-clamp of cardiac sodium current; type: cell-based; conditions: PnTx-19 1 μM
Description: FIG. 6—Effects of the peptide PnTx-19 and of the toxin PnTx2-6 in the cardiac sodium current. A—Effect of the toxin PnTx2-6 on the peak of sodium current (black arrow) and in the inactivation current (gray arrow). C—Effect of the peptide PnTx-19 on the peak of the sodium current and in the inactivation current. D—Course of time of peak in the sodium current, during the perfusion of PnTx-19 and PnTx-26. Each black circle indicates the amplitude of the Ina, measured every 1 second in a membrane potential of −20 mV. The gray bars indicate the moment when the cell was exposed to PnTx2-6 or PnTX-19 (peptide). The bar graphs summarize the effects of PnTx2-6 500 nM (n=7) and of the peptide PnTx-19 (peptide) 1 μM (n=12) in the decay constant (E) and reduction of the sodium current (F). Bars indicate average±SEM, *p<0.05 with respect to the controls.
Patch-clamp experiments were carried out with a view to analyze the effects of the toxin PnTx2-6 and of the peptide PnTx-19 on channels for sodium Nav1.5, present in cardiomyocytes.

[5] = tested on: cerebrocortical synaptosomes; assay: Synaptosomal viability (lactate dehydrogenase activity, % lysis vs Triton X-100); type: cell-based, rat; conditions: for lysis (LDH activity relative to Triton X-100 = 100% of lysis): 60 min incubation
Protocol: FIG. 3—Synaptosomal viability—verified by the activity of the enzyme lactate dehydrogenase, which oxidizes the NADH to NAD+. The latter determines a reduction in the reading (339 nm), which enables one to qualify the enzymatic activity. The reaction mixture was incubated for 60 min with PnTx(19) (10^-5 M; 3×10^-5 M; 10^-6 M; 3×10^-6 M) and the activity percentage evaluated with respect to the lysis triggered by the Triton X-100, considered=100% of lysis. The activity of this enzyme is proportional to the breakage of the synaptosomes, considering that this is an enzyme of the intracellular compartment.
Adult rats (240-300 g) were decapitated the brains were rapidly removed, immersed into homogenization solution (sucrose 0.32 M, EDTA 1 Mm and Dithiotreitol (DTT) 0.25 mM, pH=7.4) and kept in ice, then they were used in preparing the synaptosomes, as previously described by Dunkley et al 1988 (DUNKLEY, P. R.; Brain Research, 441, 59-71, 1988).
As control of the viability of the synaptosomes and also for verifying a possible lytic activity of the peptide, one carried out tests for activity of the enzyme lactate dehydrogenase, according to Kubowistz, Ott, 1943 (KUBOWISTZ, F., OTT, C. Biochem Z. 319, 94-117, 1943).

Compound | relaxation of cavernous-body strips [1] | effect on ventricular pressure, ±dP/dt and heart rate (isolated perfused heart) | release of L-glutamate [2] | release of L-glutamate ([2]; listed as PnTx19) | solubility in water [3] | hypersensitivity or death reactions of the animals (Swiss mice) | effect on density of the sodium current [4] | effect on peak of sodium current and inactivation current [4] | lysis (LDH activity relative to Triton X-100 = 100% of lysis) ([5]; 3×10^-5 M) | lysis (LDH activity relative to Triton X-100 = 100% of lysis) ([5]; 3×10^-6 M) | lysis (LDH activity relative to Triton X-100 = 100% of lysis) ([5]; 10^-5 M) | effect on synaptosomal viability and/or exocytotic machinery ([5]; 10^-6 M to 3×10^-5 M, compared with control (absence of the peptide)) | lysis (LDH activity relative to Triton X-100 = 100% of lysis) ([5]; 10^-6 M)
CC(=O)OCC[N+](C)(C)C [acetylcholine] | 81.6% |  |  |  |  |  |  |  |  |  |  |  | 
Ac-GERRQYFWIAWYKLANSKK-NH2 [PnTx(19)] |  | did not alter any of these parameters | induced an increase in the release of glutamate | capable of inducing significant release of L-glutamate | water-soluble | No hypersensitivity or death reactions | this phenomenon was not observed | These effects were not observed | 2% | 9% | 3.4% | does not affect the synaptosomal viability and/or exocytotic machinery | 6%
